# In patent publication US20150031572A1, “MEANS AND METHODS FOR ASSESSING NEURONAL TOXICITY” (priority 2012, published 2015):
# Where a name gives a salt, the structure may show the parent alone. Marks after values point to notes of the source that are not given here.
# Test: Plasma metabolite profiling (GC-MS, LC-MS, SPE-LC-MS) of rats dosed once daily over 28 days; treatment ratios versus untreated control
# Assay type: in vivo, rat
# Protocol: A group of each 5 male and female rats was dosed once daily with the indicated compounds (see Table 10, below for compounds, applied doses and administration details) over 28 days.
# Each dose group in the studies consisted of five rats per sex. Additional groups of each 5 male and female animals served as controls. Before starting the treatment period, animals, which were 62-64 days old when supplied, were acclimatized to the housing and environmental conditions for 7 days. All animals of the animal population were kept under the same constant temperature (20-24±3° C.) and the same constant humidity (30-70%). The animals of the animal population were fed ad libitum. The food to be used was essentially free of chemical or microbial contaminants. Drinking water was also offered ad libitum. Accordingly, the water was free of chemical and microbial contaminants as laid down in the European Drinking Water Directive 98/83/EG. The illumination period was 12 hours light followed by 12 hours darkness (12 hours light, from 6:00 to 18:00, and 12 hours darkness, from 18:00 to 6:00). […] The test substances (compounds) in the Tables 1 to 9 below were dosed and administered as described in the Table 10 above.
# In the morning of day 7, 14, and 28, blood was taken from the retro-orbital venous plexus from fasted anaesthetized animals. From each animal, 1 ml of blood was collected with EDTA as anticoagulant. The samples were centrifuged for generation of plasma. All plasma samples were covered with a N2 atmosphere and then stored at −80° C. until analysis.
# For mass spectrometry-based metabolite profiling analyses plasma samples were extracted and a polar and a non-polar (lipid) fraction was obtained. For GC-MS analysis, the non-polar fraction was treated with methanol under acidic conditions to yield the fatty acid methyl esters. Both fractions were further derivatised with O-methyl-hydroxyamine hydrochloride and pyridine to convert Oxogroups to O-methyloximes and subsequently with a silylating agent before analysis. In LC-MS analysis, both fractions were reconstituted in appropriate solvent mixtures. HPLC was performed by gradient elution on reversed phase separation columns. Mass spectrometric detection which allows target and high sensitivity MRM (Multiple Reaction Monitoring) profiling in parallel to a full screen analysis was applied as described in WO2003073464.
# Steroids and their metabolites were measured by online SPE-LC-MS (Solid phase extraction-LC-MS).
# Following comprehensive analytical validation steps, the data for each analyte were normalized against data from pool samples. These samples were run in parallel through the whole process to account for process variability. The significance of treatment group values specific for sex, treatment duration and metabolite was determined by comparing means of the treated groups to the means of the respective untreated control groups using WELCH-test and quantified with treatment ratios versus control and p-values.
# The identification of the most important biomarkers per toxicity pattern was done by a ranking of the analytes in the tables below. Therefore the metabolic changes in reference treatments of a given pattern (shown in the table) were compared with changes of the same metabolite in other unrelated treatments. […] The maximum absolute value of the respective TVALUE was taken to indicate the most important metabolite for the pattern.
# [1] = plasma, female rats, day 28, high dose, Table 6a
# [2] = plasma, female rats, day 28, high dose, Table 6b
# [3] = plasma, female rats, day 28, high dose, Table 8c
# [4] = plasma, female rats, day 28, high dose, Table 8d
# [5] = plasma, female rats, day 7, high dose, Table 4a
# [6] = plasma, female rats, day 7, high dose, Table 4b
# [7] = plasma, female rats, day 14, high dose, Table 4a
# [8] = plasma, female rats, day 14, high dose, Table 4b
# [9] = plasma, female rats, day 28, high dose, Table 4a
# [10] = plasma, female rats, day 28, high dose, Table 4b
smiles,measurement,setting,value
C#C[C@]1(O)CC[C@H]2[C@@H]3CCc4cc(O)ccc4[C@H]3CC[C@@]21C [17-alpha-Ethynylestradiol],"3-Methoxytyrosine, ratio versus control",[1],1.29*
same,"Isoleucine, ratio versus control",[1],1.07
same,"4-Hydroxy-3-methoxyphenylglycol (HMPG), ratio versus control",[2],0.7*
same,"14-Methylhexadecanoic acid, ratio versus control",[2],0.86*
same,"16-Methylheptadecanoic acid, ratio versus control",[2],0.29*
same,"17-Methyloctadecanoic acid, ratio versus control",[2],0.46*
same,"Ceramide (d18:1,C24:1), ratio versus control",[2],0.6*
same,"Choline plasmalogen No 03, ratio versus control",[2],0.38*
same,"Homovanillic acid (HVA), ratio versus control",[2],0.47*
same,"Isopalmitic acid (C16:0), ratio versus control",[2],0.51*
same,"Lactate, ratio versus control",[2],0.99
same,"Myristic acid (C14:0), ratio versus control",[2],0.59*
same,"Phosphatidylcholine (C16:0, C20:4), ratio versus control",[2],0.78*
same,"Phosphatidylcholine No 04, ratio versus control",[2],0.39*
same,"Pyruvate, ratio versus control",[2],0.87*
CN1CCc2cccc3c2[C@H]1Cc1ccc(O)c(O)c1-3 [Apomorphine],"Isoleucine, ratio versus control",[1],1.25*
same,"14-Methylhexadecanoic acid, ratio versus control",[2],0.83*
same,"16-Methylheptadecanoic acid, ratio versus control",[2],0.66*
same,"17-Methyloctadecanoic acid, ratio versus control",[2],0.73*
same,"Ceramide (d18:1,C24:1), ratio versus control",[2],0.61*
same,"Choline plasmalogen No 03, ratio versus control",[2],0.89*
same,"Isopalmitic acid (C16:0), ratio versus control",[2],0.93
same,"Lactate, ratio versus control",[2],0.9
same,"Myristic acid (C14:0), ratio versus control",[2],0.9*
same,"Phosphatidylcholine (C16:0, C20:4), ratio versus control",[2],0.88*
same,"Phosphatidylcholine No 04, ratio versus control",[2],0.88*
same,"Pyruvate, ratio versus control",[2],0.33*
same,"3-Hydroxybutyrate, ratio versus control",[3],1.41 *
same,"Isoleucine, ratio versus control",[3],1.25 *
same,"TAG (C16:0,C18:2), ratio versus control",[3],2.31 *
same,"16-Methylheptadecanoic acid, ratio versus control",[4],0.66 *
same,"17-Methyloctadecanoic acid, ratio versus control",[4],0.73 *
same,"Ceramide (d18:1,C24:1), ratio versus control",[4],0.61 *
same,"Phosphatidylcholine (C16:0, C20:4), ratio versus control",[4],0.88 *
same,"Phosphatidylcholine (C18:0, C20:3), ratio versus control",[4],0.98 *
same,"Pyruvate, ratio versus control",[4],0.33 *
CC(C)C[C@H]1C(=O)N2CCC[C@H]2[C@]2(O)O[C@](NC(=O)[C@@H]3C=C4c5cccc6[nH]c(Br)c(c56)C[C@H]4N(C)C3)(C(C)C)C(=O)N12 [Bromocriptine Mesylate],"Isoleucine, ratio versus control",[1],1.14*
same,"14-Methylhexadecanoic acid, ratio versus control",[2],0.85*
same,"16-Methylheptadecanoic acid, ratio versus control",[2],0.51*
same,"17-Methyloctadecanoic acid, ratio versus control",[2],0.67*
same,"Ceramide (d18:1,C24:1), ratio versus control",[2],0.6*
same,"Choline plasmalogen No 03, ratio versus control",[2],0.62*
same,"Isopalmitic acid (C16:0), ratio versus control",[2],0.62*
same,"Lactate, ratio versus control",[2],0.47*
same,"Myristic acid (C14:0), ratio versus control",[2],0.84
same,"Phosphatidylcholine (C16:0, C20:4), ratio versus control",[2],0.94*
same,"Phosphatidylcholine No 04, ratio versus control",[2],0.47*
same,"Pyruvate, ratio versus control",[2],0.71*
same,"3-Hydroxybutyrate, ratio versus control",[3],1.13^
same,"Isoleucine, ratio versus control",[3],1.14 *
same,"TAG (C16:0,C18:2), ratio versus control",[3],1.2 *
same,"16-Methylheptadecanoic acid, ratio versus control",[4],0.51 *
same,"17-Methyloctadecanoic acid, ratio versus control",[4],0.67 *
same,"Ceramide (d18:1,C24:1), ratio versus control",[4],0.6 *
same,"Phosphatidylcholine (C16:0, C20:4), ratio versus control",[4],0.94 *
same,"Phosphatidylcholine (C18:0, C20:3), ratio versus control",[4],0.71 *
same,"Pyruvate, ratio versus control",[4],0.71 *
C=CCN1C[C@H](C(=O)N(CCCN(C)C)C(=O)NCC)C[C@@H]2c3cccc4[nH]cc(c34)C[C@H]21 [Cabergoline],"Isoleucine, ratio versus control",[1],1.14*
same,"4-Hydroxy-3-methoxyphenylglycol (HMPG), ratio versus control",[2],0.79*
same,"14-Methylhexadecanoic acid, ratio versus control",[2],0.74*
same,"16-Methylheptadecanoic acid, ratio versus control",[2],0.28*
same,"17-Methyloctadecanoic acid, ratio versus control",[2],0.3*
same,"Ceramide (d18:1,C24:1), ratio versus control",[2],0.39*
same,"Choline plasmalogen No 03, ratio versus control",[2],0.39*
same,"Homovanillic acid (HVA), ratio versus control",[2],0.41*
same,"Isopalmitic acid (C16:0), ratio versus control",[2],0.36*
same,"Lactate, ratio versus control",[2],0.7*
same,"Myristic acid (C14:0), ratio versus control",[2],0.33*
same,"Phosphatidylcholine (C16:0, C20:4), ratio versus control",[2],0.97
same,"Phosphatidylcholine No 04, ratio versus control",[2],0.34*
same,"Pyruvate, ratio versus control",[2],0.93
same,"3-Methoxytyrosine, ratio versus control","rat, in vivo",1.24*
CN(C)CCCN1c2ccccc2Sc2ccc(Cl)cc21 [Chlorpromazine],"Ceramide (d18:1,C24:1), ratio versus control",[5],2.34*
same,"Docosapentaenoic acid (C22:cis[7,10,13,16,19]5), ratio versus control",[5],1.46
same,"Elaidic acid (C18:trans[9]1), ratio versus control",[5],1.46
same,"Myristic acid (C14:0), ratio versus control",[5],0.91
same,"Phosphatidylcholine (C16:0,C16:0), ratio versus control",[5],1.11*
same,"Phosphatidylcholine (C16:1,C18:2), ratio versus control",[5],1.38*
same,"TAG No 07, ratio versus control",[5],2.57*
same,"myo-Inositol, lipid fraction, ratio versus control",[5],1.42
same,"Creatinine, ratio versus control",[6],0.97
same,"Glutamate, ratio versus control",[6],0.83*
same,"Glycine, ratio versus control",[6],1.01
same,"Lactate, ratio versus control",[6],0.65*
same,"Myristic acid (C14:0), ratio versus control",[6],0.91
same,"Uric acid, ratio versus control",[6],0.62*
same,"Ceramide (d18:1,C24:1), ratio versus control",[7],1.44*
same,"Docosapentaenoic acid (C22:cis[7,10,13,16,19]5), ratio versus control",[7],1.17
same,"Galactose, lipid fraction, ratio versus control",[7],1
same,"Myristic acid (C14:0), ratio versus control",[7],1.04
same,"Phosphatidylcholine (C16:0,C16:0), ratio versus control",[7],1.3*
same,"Phosphatidylcholine (C16:1,C18:2), ratio versus control",[7],1.02
same,"TAG No 07, ratio versus control",[7],1.79
same,"myo-Inositol, lipid fraction, ratio versus control",[7],1.02
same,"Creatinine, ratio versus control",[8],0.86
same,"Glutamate, ratio versus control",[8],0.93*
same,"Lactate, ratio versus control",[8],0.97
same,"Myristic acid (C14:0), ratio versus control",[8],1.04
same,"Uric acid, ratio versus control",[8],0.84
same,"Ceramide (d18:1,C24:1), ratio versus control",[9],1.22
same,"Docosapentaenoic acid (C22:cis[7,10,13,16,19]5), ratio versus control",[9],1.18*
same,"Elaidic acid (C18:trans[9]1), ratio versus control",[9],0.98
same,"Galactose, lipid fraction, ratio versus control",[9],0.91
same,"Myristic acid (C14:0), ratio versus control",[9],0.89
same,"Phosphatidylcholine (C16:0,C16:0), ratio versus control",[9],1.14
same,"Phosphatidylcholine (C16:1,C18:2), ratio versus control",[9],1
same,"TAG No 07, ratio versus control",[9],2.1*
same,"myo-Inositol, lipid fraction, ratio versus control",[9],0.96
same,"Creatinine, ratio versus control",[10],0.84*
same,"Glutamate, ratio versus control",[10],1.05
same,"Glycine, ratio versus control",[10],1.01
same,"Lactate, ratio versus control",[10],0.94
same,"Myristic acid (C14:0), ratio versus control",[10],0.89*
same,"Uric acid, ratio versus control",[10],0.88
same,"Elaidic acid (C18:trans[9]1), ratio versus control","rat, in vivo",1.16*
same,"Galactose, lipid fraction, ratio versus control","rat, in vivo",1.34*
same,"Glycine, ratio versus control","rat, in vivo",1.06*
